According to patent US20110319416A1, “Subunit Selective NMDA Receptor Antagonists For The Treatment Of Neurological Conditions” (EMORY UNIVERSITY, priority 2009, published 2011):
Read-outs that look alike come from different tables or passages of the source.

What was measured:
NR1/NR2D [1] = target: T1, NR1/NR2D (Rattus norvegicus, UniProt Q62645); assay: Two electrode voltage clamp, Xenopus oocytes expressing recombinant NR1/NR2D; assay type: cell-based
Description: (§1) Quality of synthesized cRNA was assessed by gel electrophoresis, and quantity was estimated by spectroscopy and gel electrophoresis. Stage V and VI oocytes were surgically removed from the ovaries of large, well-fed and healthy Xenopus laevis anesthetized with 3-amino-benzoic acid ethyl ester (3 gm/l) as previously described. Clusters of isolated oocytes were incubated with 292 U/ml Worthington (Freehold, N.J.) type IV collagenase or 1.3 mg/ml collagenase (Life Technologies, Gaithersburg, MD; 17018-029) for 2 hr in Ca^2+-free solution comprised of (in mM) 115 NaCl, 2.5 KCl, and 10 HEPES, pH 7.5, with slow agitation to remove the follicular cell layer. Oocytes were then washed extensively in the same solution supplemented with 1.8 mM CaCl2 and maintained in Barth's solution comprised of (in mM): 88 NaCl, 1 KCl, 2.4 NaHCO3, 10 HEPES, 0.82 MgSO4, 0.33 Ca(NO3)2, and 0.91 CaCl2 and supplemented with 100 μg/m1 gentamycin, 10 μg/ml streptomycin, and 10 μg/ml penicillin. Oocytes were manually defolliculated and injected within 24 hrs of isolation with 3-5 ng of NR1 subunit cRNA and 7-10 ng of NR2 cRNA subunit in a 50 nl volume, or 5-10 ng of AMPA or kainate receptor cRNAs in a 50 nl volume, and incubated in Barth's solution at 18° C. for 1-7 d. Glass injection pipettes had tip sizes ranging from 10-20 microns, and were backfilled with mineral oil.
(§2) Two electrode voltage-clamp recordings were made 2-7 days post-injection as previously described. Oocytes were placed in a dual-track plexi-glass recording chamber with a single perfusion line that splits in a Y-configuration to perfuse two oocytes. Dual recordings were made at room temperature (23° C.) using two Warner OC725B two-electrode voltage clamp amplifiers, arranged as recommended by the manufacturer. Glass microelectrodes (1-10 Megaohms) were filled with 300 mM KCl (voltage electrode) or 3 M KCl (current electrode). The bath clamps communicated across silver chloride wires placed into each side of the recording chamber, both of which were assumed to be at a reference potential of 0 mV. Oocytes were perfused with a solution comprised of (in mM) 90 NaCl, 1 KCl, 10 HEPES, and 0.5 BaCl2; pH was adjusted by addition of 1-3 M NaOH of HC1 to 7.4. Oocytes were recorded under voltage clamp at −40 mV. […] In some experiments, 10 μM EDTA was obtained by adding a 1:1000 dilution of 10 mM EDTA, in order to chelate contaminant divalent ions such as Zn^2+. […] Concentration effect curves consisting of 4 to 8 concentrations were obtained in this manner. The baseline leak current at −40 mV was measured before and after recording, and the full recording linearly corrected for any change in leak current. […] Each experiment consisted of recordings from 3 to 10 oocytes obtained from a single frog. Results from multiple experiments were pooled, and the average percent responses at antagonist concentrations were fitted by the equation,
(§3) Percent Response=(100−minimum)/(1+([conc]/IC50)nH)+minimum

NR1/NR2C = NR1/NR2C (Rattus norvegicus, UniProt P35439+Q00961); assay: Two electrode voltage clamp, Xenopus oocytes expressing recombinant NR1/NR2C; assay type: cell-based; conditions: for remaining activity at 100 µM: read-out: 2C percent effect at the maximum tested concentration
Description: as §1, §2, §3

NR1/NR2A = NR1/NR2A (Rattus norvegicus, UniProt P35439+Q00959); assay: Two electrode voltage clamp, Xenopus oocytes expressing recombinant NR1/NR2A; assay type: cell-based; conditions: for remaining activity at 100 µM: read-out: 2A percent effect at the maximum tested concentration
NR1/NR2A, sequence (Q00959 23-1464, other chains not shown): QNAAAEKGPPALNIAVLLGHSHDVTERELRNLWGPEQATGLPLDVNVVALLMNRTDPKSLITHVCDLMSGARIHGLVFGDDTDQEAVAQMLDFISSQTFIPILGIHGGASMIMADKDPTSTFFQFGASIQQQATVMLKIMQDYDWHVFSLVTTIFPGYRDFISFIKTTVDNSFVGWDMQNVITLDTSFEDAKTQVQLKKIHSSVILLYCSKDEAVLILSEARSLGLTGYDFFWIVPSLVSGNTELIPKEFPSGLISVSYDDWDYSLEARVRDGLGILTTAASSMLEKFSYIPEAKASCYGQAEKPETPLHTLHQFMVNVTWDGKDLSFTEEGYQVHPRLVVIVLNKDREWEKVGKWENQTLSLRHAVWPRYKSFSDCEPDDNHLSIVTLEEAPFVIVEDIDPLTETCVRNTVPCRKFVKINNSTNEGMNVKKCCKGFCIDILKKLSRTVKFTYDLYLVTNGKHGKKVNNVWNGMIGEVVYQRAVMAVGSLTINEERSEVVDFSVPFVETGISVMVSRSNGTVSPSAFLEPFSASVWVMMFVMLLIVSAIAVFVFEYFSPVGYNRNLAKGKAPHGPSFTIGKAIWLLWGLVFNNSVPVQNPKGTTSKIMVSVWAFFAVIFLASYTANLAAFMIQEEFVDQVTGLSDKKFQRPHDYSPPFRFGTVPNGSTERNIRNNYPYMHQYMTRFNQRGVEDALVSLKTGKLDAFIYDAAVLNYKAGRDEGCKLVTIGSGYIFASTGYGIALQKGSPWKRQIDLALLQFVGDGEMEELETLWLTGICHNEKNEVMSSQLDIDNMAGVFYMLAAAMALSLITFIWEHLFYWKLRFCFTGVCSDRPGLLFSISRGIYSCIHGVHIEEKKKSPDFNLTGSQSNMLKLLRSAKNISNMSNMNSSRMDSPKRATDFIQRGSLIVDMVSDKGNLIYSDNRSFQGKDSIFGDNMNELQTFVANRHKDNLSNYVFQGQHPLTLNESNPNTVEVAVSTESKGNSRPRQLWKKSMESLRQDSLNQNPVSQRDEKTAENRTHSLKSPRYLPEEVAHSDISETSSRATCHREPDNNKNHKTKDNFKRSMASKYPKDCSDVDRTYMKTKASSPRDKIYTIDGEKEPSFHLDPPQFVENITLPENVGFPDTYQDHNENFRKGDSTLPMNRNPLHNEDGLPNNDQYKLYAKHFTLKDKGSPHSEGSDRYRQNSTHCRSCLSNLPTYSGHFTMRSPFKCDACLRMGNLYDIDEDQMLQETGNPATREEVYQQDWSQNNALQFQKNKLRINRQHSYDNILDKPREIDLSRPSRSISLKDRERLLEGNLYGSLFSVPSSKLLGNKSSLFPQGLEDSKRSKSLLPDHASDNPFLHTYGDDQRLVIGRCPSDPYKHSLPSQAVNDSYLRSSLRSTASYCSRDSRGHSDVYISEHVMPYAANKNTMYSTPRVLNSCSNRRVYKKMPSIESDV
Description: as §1, §2, §3

NR1/NR2D [2] = target: NR1/NR2D (Rattus norvegicus, UniProt P35439+Q62645); assay: Two electrode voltage clamp, Xenopus oocytes expressing recombinant NR1/NR2D; assay type: cell-based; conditions: for remaining activity at 100 µM: read-out: 2D percent effect at the maximum tested concentration
NR1/NR2D (Rattus norvegicus, UniProt P35439+Q62645), sequence (Q62645 28-1323, other chains not shown): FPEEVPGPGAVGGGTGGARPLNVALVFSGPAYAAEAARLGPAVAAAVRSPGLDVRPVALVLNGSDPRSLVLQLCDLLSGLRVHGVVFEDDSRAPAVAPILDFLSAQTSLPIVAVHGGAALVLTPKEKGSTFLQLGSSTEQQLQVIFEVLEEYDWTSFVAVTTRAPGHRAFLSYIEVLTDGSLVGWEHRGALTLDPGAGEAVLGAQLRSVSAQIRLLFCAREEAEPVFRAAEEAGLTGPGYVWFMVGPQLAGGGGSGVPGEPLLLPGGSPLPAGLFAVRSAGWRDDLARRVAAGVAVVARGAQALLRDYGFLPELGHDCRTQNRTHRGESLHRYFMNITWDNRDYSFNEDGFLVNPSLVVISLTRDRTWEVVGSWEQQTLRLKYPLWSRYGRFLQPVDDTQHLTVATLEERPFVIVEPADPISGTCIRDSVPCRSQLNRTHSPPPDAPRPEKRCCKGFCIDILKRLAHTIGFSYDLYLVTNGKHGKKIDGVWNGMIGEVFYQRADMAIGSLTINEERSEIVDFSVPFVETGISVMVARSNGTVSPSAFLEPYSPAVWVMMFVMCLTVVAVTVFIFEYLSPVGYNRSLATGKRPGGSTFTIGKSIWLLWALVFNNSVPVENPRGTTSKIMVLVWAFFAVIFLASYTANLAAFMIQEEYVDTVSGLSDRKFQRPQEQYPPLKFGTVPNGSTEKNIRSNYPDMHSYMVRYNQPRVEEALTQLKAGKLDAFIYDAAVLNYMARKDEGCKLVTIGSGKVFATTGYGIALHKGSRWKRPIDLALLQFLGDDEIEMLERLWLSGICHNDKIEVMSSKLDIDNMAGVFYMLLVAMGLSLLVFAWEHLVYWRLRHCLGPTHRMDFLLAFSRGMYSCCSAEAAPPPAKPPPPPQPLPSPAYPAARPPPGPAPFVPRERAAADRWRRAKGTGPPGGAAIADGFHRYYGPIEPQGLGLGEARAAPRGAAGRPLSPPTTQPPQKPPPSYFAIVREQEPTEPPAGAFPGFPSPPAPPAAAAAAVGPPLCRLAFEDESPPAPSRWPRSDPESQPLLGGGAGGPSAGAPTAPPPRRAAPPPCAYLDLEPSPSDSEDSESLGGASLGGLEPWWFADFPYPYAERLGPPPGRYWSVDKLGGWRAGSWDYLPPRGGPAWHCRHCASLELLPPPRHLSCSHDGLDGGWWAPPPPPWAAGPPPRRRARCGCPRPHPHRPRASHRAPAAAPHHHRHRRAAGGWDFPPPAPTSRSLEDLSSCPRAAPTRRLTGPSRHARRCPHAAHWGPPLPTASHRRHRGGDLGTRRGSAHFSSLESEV
Description: as §1, §2, §3

GluR1 = GluR1 (Rattus norvegicus, UniProt P19490); assay: Two electrode voltage clamp, Xenopus oocytes expressing GluR1; assay type: cell-based; conditions: read-out: GluR1 percent effect at the maximum tested concentration
GluR1, sequence (P19490 19-907): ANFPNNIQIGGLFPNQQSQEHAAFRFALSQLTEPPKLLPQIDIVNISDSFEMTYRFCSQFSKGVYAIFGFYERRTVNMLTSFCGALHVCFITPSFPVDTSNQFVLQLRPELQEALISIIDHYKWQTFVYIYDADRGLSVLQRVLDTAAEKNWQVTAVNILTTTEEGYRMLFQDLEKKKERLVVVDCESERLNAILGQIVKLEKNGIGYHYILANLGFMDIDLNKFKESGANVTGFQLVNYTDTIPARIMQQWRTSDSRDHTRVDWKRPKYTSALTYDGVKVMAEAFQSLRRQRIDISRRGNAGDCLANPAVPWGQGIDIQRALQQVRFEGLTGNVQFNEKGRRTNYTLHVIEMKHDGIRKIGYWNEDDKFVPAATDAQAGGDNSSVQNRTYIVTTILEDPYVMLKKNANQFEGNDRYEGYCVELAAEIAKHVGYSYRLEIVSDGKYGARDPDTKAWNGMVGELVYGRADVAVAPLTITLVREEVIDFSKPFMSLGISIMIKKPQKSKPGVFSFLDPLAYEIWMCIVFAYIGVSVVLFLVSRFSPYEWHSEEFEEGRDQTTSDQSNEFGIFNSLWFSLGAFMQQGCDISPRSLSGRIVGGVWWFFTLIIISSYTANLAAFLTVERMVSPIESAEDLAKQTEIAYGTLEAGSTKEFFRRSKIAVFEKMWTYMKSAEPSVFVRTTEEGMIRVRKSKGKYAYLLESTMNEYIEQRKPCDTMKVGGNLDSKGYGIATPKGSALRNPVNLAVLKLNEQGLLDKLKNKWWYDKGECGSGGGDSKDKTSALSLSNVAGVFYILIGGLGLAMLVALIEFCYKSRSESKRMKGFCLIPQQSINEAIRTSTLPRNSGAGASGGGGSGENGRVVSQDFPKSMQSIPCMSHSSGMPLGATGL
Description: as §1, §2, §3

NR1/NR2B = NR1/NR2B (Rattus norvegicus, UniProt P35439+Q00960); assay: Two electrode voltage clamp, Xenopus oocytes expressing recombinant NR1/NR2B; assay type: cell-based; conditions: for remaining activity at 100 µM: read-out: 2B percent effect at the maximum tested concentration
NR1/NR2B, sequence (Q00960 27-1482, other chains not shown): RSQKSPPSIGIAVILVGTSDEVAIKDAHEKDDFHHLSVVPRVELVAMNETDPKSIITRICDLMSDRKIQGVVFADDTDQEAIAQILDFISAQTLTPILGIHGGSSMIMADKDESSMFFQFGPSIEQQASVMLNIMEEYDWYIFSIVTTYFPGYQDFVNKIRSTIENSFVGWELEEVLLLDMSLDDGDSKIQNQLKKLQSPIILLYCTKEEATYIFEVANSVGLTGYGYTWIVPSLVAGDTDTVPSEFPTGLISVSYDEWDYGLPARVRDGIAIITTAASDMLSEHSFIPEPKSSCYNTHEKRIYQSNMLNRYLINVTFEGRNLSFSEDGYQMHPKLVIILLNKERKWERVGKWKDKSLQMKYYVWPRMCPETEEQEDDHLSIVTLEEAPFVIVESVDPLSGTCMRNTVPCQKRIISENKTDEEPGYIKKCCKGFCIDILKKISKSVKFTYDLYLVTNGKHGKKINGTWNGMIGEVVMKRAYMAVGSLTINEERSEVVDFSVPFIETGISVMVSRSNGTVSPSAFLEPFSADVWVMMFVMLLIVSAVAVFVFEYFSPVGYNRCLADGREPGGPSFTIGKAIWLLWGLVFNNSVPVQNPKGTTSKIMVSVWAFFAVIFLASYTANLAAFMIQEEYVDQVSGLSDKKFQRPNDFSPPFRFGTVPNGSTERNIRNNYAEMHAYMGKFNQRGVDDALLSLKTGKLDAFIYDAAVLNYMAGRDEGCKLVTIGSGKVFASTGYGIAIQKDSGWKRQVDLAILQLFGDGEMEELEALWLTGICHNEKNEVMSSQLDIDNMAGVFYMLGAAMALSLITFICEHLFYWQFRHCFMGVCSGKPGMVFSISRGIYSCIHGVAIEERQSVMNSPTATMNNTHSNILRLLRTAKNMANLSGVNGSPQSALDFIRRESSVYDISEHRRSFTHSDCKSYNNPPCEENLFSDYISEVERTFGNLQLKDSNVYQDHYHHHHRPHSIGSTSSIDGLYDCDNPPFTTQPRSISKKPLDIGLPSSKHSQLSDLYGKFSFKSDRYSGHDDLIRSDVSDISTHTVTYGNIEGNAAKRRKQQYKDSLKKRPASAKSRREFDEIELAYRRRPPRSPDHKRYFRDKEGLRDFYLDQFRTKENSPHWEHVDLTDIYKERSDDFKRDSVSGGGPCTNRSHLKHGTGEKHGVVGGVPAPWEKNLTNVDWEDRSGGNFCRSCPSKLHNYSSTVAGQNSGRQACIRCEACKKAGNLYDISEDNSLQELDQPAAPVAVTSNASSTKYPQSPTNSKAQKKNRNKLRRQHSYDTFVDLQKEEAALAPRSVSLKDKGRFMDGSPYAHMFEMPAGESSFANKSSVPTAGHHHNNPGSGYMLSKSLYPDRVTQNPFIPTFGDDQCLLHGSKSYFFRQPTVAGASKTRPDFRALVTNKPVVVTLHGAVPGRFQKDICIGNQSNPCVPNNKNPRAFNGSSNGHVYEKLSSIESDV
Description: as §1, §2, §3

NR1/NR2D [3] = target: T1, NR1/NR2D; assay: Ca2+ fluorescence screening assay in NR1/NR2D expressing BHK cells (96 well); assay type: cell-based; parameters: expressed in transfected cells; host or cells: BHK-21 cells; NR1 induced by doxycyclin (Tet-On), NR2D constitutive
NR2D = NR2D (Homo sapiens, UniProt O15399+Q05586); conditions: cited from earlier work
NR2C = NR2C (Homo sapiens, UniProt Q05586+Q14957); conditions: non-competitive and uncompetitive antagonists; read-out: 2C (μM) IC50; cited from earlier work
NR2B = NR2B (Homo sapiens, UniProt Q05586+Q13224); conditions: non-competitive and uncompetitive antagonists; read-out: 2B (μM) IC50; cited from earlier work
[4] = logistic fit, minimum forced to 0, read-out: 2C IC50
[5] = logistic fit, minimum forced to 0, read-out: 2D IC50
[6] = 10 μM test compound, 100 μM glutamate/1 mM glycine
[7] = logistic fit, minimum forced to 0, read-out: 2A IC50
[8] = logistic fit, minimum forced to 0, read-out: 2B IC50

T1 sequence (Q62645 28-1323, other chains not shown): as the sequence (Q62645 28-1323, other chains not shown) above

Compound: CC(=O)N1N=C(c2c(-c3ccccc3)c3cc(C)ccc3[nH]c2=O)CC1c1ccc(Br)cc1 (stereo not shown) [compound 1250]
- 2D percent response at the maximum tested concentration (NR1/NR2D [1]): 81% at 30 μM

Compound: Cc1ccc2cc(C3CC(c4ccc(Br)cc4)=NN3C(=O)CCC(=O)O)c(=O)[nH]c2c1 (stereo not shown) [compound 1177]
- 2D percent response at the maximum tested concentration (NR1/NR2D [1]; at 100 μM): 80% at 100 μM

Compound: CCN(CC)C(=O)Oc1ccc(C(=O)Nc2cc(C(=O)OC)cc3c(C)c[nH]c23)cc1 [1063-35]
- remaining activity at 100 µM (NR1/NR2C): 77%
- IC50 (NR1/NR2A): 177 µM
- remaining activity at 100 µM (NR1/NR2D [2]): 80%
- remaining activity at 100 µM (GluR1): 97%
- IC50 (NR1/NR2B): 238 µM

Compound: CCN(CC)C(=O)Oc1ccc(C(=O)Nc2cccc3ccccc23)cc1 [1063-2]
- IC50 (NR1/NR2C): 6 µM
- IC50 (NR1/NR2A): 433 µM
- IC50 (NR1/NR2D [2]): 4 µM
- remaining activity at 100 µM (GluR1): 118%
- IC50 (NR1/NR2B): 141 µM

Compound: CCN(CC)C(=S)Oc1ccc(C(=O)Nc2cccc3cc[nH]c23)cc1 [1063-21]
- IC50 (NR1/NR2C; [4]): 15 µM
- remaining activity at 100 µM (NR1/NR2A; at 100 μM): 94%
- IC50 (NR1/NR2D [2]; [5]): 4 µM
- remaining activity at 100 µM (GluR1; at 100 μM): 102%
- remaining activity at 100 µM (NR1/NR2B; at 100 μM): 78%

Compound: C=CCN1CC[C@]23CCCC[C@H]2[C@H]1Cc1ccc(O)cc13 [levallorphan]
- identification in test screen of NR1/NR2D expressing BHK cells (NR1/NR2D [3]; [6]): successfully identified

Compound: CCc1cccc(N(C)C(N)=Nc2cccc3ccccc23)c1 [CNS-1102]
- identification in test screen of NR1/NR2D expressing BHK cells (NR1/NR2D [3]; [6]): successfully identified

Compound: CCN(CC)C(=O)Oc1ccc(C(=O)Nc2cccc3cc[nH]c23)cc1 [1063-20]
- IC50 (NR1/NR2C): 5 µM
- IC50 (NR1/NR2A): 2420 µM
- IC50 (NR1/NR2D [2]): 3 µM
- remaining activity at 100 µM (GluR1): 92%
- IC50 (NR1/NR2B): 933 µM

Compound: CC(C)N(C(=O)Oc1ccc(C(=O)Oc2ccc3cccc(N)c3c2)cc1)C(C)C [1063-13]
- IC50 (NR1/NR2C): 385 µM
- remaining activity at 100 µM (NR1/NR2A): 89%
- IC50 (NR1/NR2D [2]): 55 µM
- remaining activity at 100 µM (GluR1): 117%
- remaining activity at 100 µM (NR1/NR2B): 84%

Compound: (+)MK-801
- identification in test screen of NR1/NR2D expressing BHK cells (NR1/NR2D [3]; [6]): successfully identified

Compound: C=CCN(CC=C)C(=O)Oc1ccc(C(=O)Nc2cccc3ccccc23)cc1 [1063-5]
- IC50 (NR1/NR2C): 42 µM
- remaining activity at 100 µM (NR1/NR2A): 104%
- IC50 (NR1/NR2D [2]): 28 µM
- remaining activity at 100 µM (GluR1): 103%
- IC50 (NR1/NR2B): 719 µM

Compound: COc1ccc(C2CC(c3c(-c4ccccc4)c4cc(Br)ccc4[nH]c3=O)=NN2C(=O)CCC(=O)O)cc1 (stereo not shown) [compound 1128]
- 2D percent response at the maximum tested concentration (NR1/NR2D [1]; at 100 μM): 90% at 100 μM

Compound: C[C@]12N[C@H](Cc3ccccc31)c1ccccc12 [(—)MK-801]
- identification in test screen of NR1/NR2D expressing BHK cells (NR1/NR2D [3]; [6]): successfully identified
- IC50 (NR2D; non-competitive and uncompetitive antagonists, read-out: 2D (μM) IC50): 0.17 µM
- IC50 (NR2C): 0.04 µM

Compound: CC(C)N(C(=O)Oc1ccc(C(=O)Nc2cccc3ccccc23)cc1)C(C)C [1063-4]
- IC50 (NR1/NR2C): 8 µM
- IC50 (NR1/NR2A): 874 µM
- IC50 (NR1/NR2D [2]): 5 µM
- remaining activity at 100 µM (GluR1): 130%
- IC50 (NR1/NR2B): 158 µM

Compound: O=C(O)C1NCCN(C(=O)c2ccc3c(ccc4ccccc43)c2)C1C(=O)O (stereo not shown) [PPDA, 1-(phenanthrene-2-carbonyl)piperazin-2,3, dicarboxylic acid]
- selectivity for NR2D over NR2A (NR2D; estimated Ki): ~5 fold

Compound: O=c1[nH]c2ccc(Cl)cc2c(-c2ccccc2)c1C1=NNC(c2ccc(Br)cc2)C1 (stereo not shown) [compound 1249]
- 2D percent response at the maximum tested concentration (NR1/NR2D [1]): 79% at 30 μM

Compound: N[C@@H](CCC(=O)O)C(=O)O [glutamate, reference compound]
- EC50 (NR1/NR2D [1]; submicromolar, method not stated, read-out: EC50 for activation of NR2D-containing receptors): < 0.5 µM

Compound: CC12CC3CC(C)(C1)CC(N)(C3)C2 [memantine]
- identification in test screen of NR1/NR2D expressing BHK cells (NR1/NR2D [3]): successfully identified

Compound: O=C(Nc1cccc2ccccc12)c1ccc(OC(=O)C2CC2)cc1 [1063-10]
- remaining activity at 100 µM (NR1/NR2C; at 100 μM): 86%
- remaining activity at 100 µM (NR1/NR2A; at 100 μM): 111%
- remaining activity at 100 µM (NR1/NR2D [2]; at 100 μM): 81%
- remaining activity at 100 µM (NR1/NR2B; at 100 μM): 92%

Compound: C=CCN1CCC2(C)c3cc(O)ccc3CC1C2C (stereo not shown) [N-allylnormetazoline]
- identification in test screen of NR1/NR2D expressing BHK cells (NR1/NR2D [3]; [6]): successfully identified

Compound: O=C(Nc1cccc2ccccc12)c1ccc2oc(=O)[nH]c2c1 [1063-31]
- IC50 (NR1/NR2C; [4]): 526 µM
- IC50 (NR1/NR2A; [7]): 550 µM
- IC50 (NR1/NR2D [2]; [5]): 366 µM
- IC50 (NR1/NR2B; [8]): 334 µM

Compound: CCN(CC)C(=O)Oc1ccc(C(=O)Nc2ccc3c(c2)CCCC3)cc1 [1063-19]
- IC50 (NR1/NR2C): 58 µM
- remaining activity at 100 µM (NR1/NR2A): 89%
- IC50 (NR1/NR2D [2]): 26 µM
- remaining activity at 100 µM (NR1/NR2B): 74%

Compound: O=C(O)CCC(=O)N1N=C(c2c(-c3ccccc3)c3cc(Br)ccc3[nH]c2=O)CC1c1ccc(Br)cc1 (stereo not shown) [compound 997]
- IC50 (NR1/NR2C; [4]): 5 µM
- IC50 (NR1/NR2A; [7]): 78 µM
- IC50 (NR1/NR2D [2]; [5]): 3 µM
- IC50 (NR1/NR2B; [8]): 19 µM

Compound: CCN(CC)C(=O)c1ccc(C(=O)Nc2cccc3cc[nH]c23)cc1 [1063-27]
- remaining activity at 100 µM (NR1/NR2C; at 100 μM): 93%
- IC50 (NR1/NR2A; [7]): 497 µM
- remaining activity at 100 µM (NR1/NR2D [2]; at 100 μM): 82%
- remaining activity at 100 µM (NR1/NR2B; at 100 μM): 83%

Compound: CCN(CC)C(=O)Oc1ccc(C(=O)Nc2cc(C)cc3c(C)c[nH]c23)cc1 [1063-34]
- IC50 (NR1/NR2C): 102 µM
- remaining activity at 100 µM (NR1/NR2A): 71%
- IC50 (NR1/NR2D [2]): 93 µM
- remaining activity at 100 µM (GluR1): 85%
- IC50 (NR1/NR2B): 365 µM

Compound: N=C(N)c1ccc(OCCCCCOc2ccc(C(=N)N)cc2)cc1 [Pentamidine]
- IC50 (NR2B): 1.5 µM

Compound: CCN(CC)C(=O)Oc1cccc(C(=O)Nc2cccc3ccccc23)c1 [1063-24]
- remaining activity at 100 µM (NR1/NR2C; at 100 μM): 93%
- remaining activity at 100 µM (NR1/NR2A; at 100 μM): 84%
- remaining activity at 100 µM (NR1/NR2D [2]; at 100 μM): 84%
- remaining activity at 100 µM (NR1/NR2B; at 100 μM): 95%
